This note sets out measurements from ChEMBL document CHEMBL3272026, “On the structure of medicinal chemistry” (J Med Chem, 1976).

Series [1] has as its system Escherichia coli. The experiment in a line: Antimicrobial activity against Escherichia coli. It is filed as functional.
Series [2] is described as follows: Lipophilicity, log P of the compound. As to conditions: octanol/water. It counts as physicochemical.
Series [3] has as its system Mollusca. The experiment in a line: Increase in mollusk membrane potential assessed as concentration required to raise 20 mV. It is filed as functional, cell membranes.
For series [4], the target named is Alcohol dehydrogenase (Homo sapiens) (UniProt P07327+P08319+P00325+P00326+P40394+P11766+P28332). Briefly: Binding affinity to alcohol dehydrogenase (unknown origin). It counts as protein assay.

On to `Nc1ccc(S(=O)(=O)Nc2ccc(Cl)cc2)cc1`, for which the “log(1/C)” value in series [1] was found to be 4.8.
Take `O=C(O)c1cc(Cl)cc(Cl)c1O`: the log partition coefficient (logP) – broadly, the decadic logarithm of the partition coefficient of the neutral form, usually between octanol and water – in series [2] stood at 0.23. For the same compound, the log(1/C) in series [3] worked out at 3.48.
With `NC(=O)c1ccc(F)cc1`, the log(1/K) in series [4] is -2.6.
Still for that read-out and setting: with `NC(=O)c1ccc([N+](=O)[O-])cc1` the figure was -2.6.
Take `CCOc1cccc(NS(=O)(=O)c2ccc(N)cc2)c1`: in series [1], the “log(1/C)” value was 4.88.
As to `Cc1cccc(Nc2ccccc2C(=O)O)c1C` [MEFENAMIC ACID], the lipophilicity (logP) in series [2] (read-out: logP) worked out at 0.28. Moreover, the log(1/C) in series [3] was 3.48.
